Experimental findings from paper PMC2841507 (Journal of medicinal chemistry, 2010) are described below.

One assay addresses human NET (Homo sapiens, UniProt P23975). The assay is described as follows: cell-based. In kind it is cell-based.
For another assay, the target named is human α3β4*-nAChR (Homo sapiens, UniProt P30926+P32297). The assay is described as follows: 86Rb+ efflux assay, SH-SY5Y cells. In kind it is cell-based.
Another assay has as its target human DAT (Homo sapiens, UniProt Q01959). The assay is described as follows: cell-based. In kind it is cell-based.
A further assay concerns the target human α4β2-nAChR (Homo sapiens, UniProt P17787+P43681). Description: 86Rb+ efflux assay, SH-EP1-hα4β2 cells. In kind it is cell-based.
Assay [1] concerns the target human muscle-type α1β1γδ- (α1*-) nAChR (Homo sapiens, UniProt P02708+P07510+P11230+Q07001). The assay is described as follows: 86Rb+ efflux assay, TE671/RD cells. In kind it is cell-based.
In assay [2] the test system is nicotine-induced antinociception (tail-flick). The assay is described as follows: Blockade of nicotine-induced antinociception, tail-flick test. In kind it is in vivo, mice. To be noted: ratio of AD50 values, relative to 2a. Background: In hot-plate and tail-flick tests a longer latency is read as antinociception.
In a further assay the target is human α4β4-nAChR (Homo sapiens, UniProt P30926+P43681). Description: 86Rb+ efflux assay, SH-EP1-hα4β4 cells. In kind it is cell-based.

The IC50 is the concentration needed to halve the response being measured. As for `CC(C(=O)c1cccc([N+](=O)[O-])c1)N1CCCC1` (stereo not drawn) [Compound 2ee, 2-(N-Pyrrolidinyl)-3’-nitropropiophenone], the 50% inhibitory concentration (IC50) came out at 4100 ± 540 nM against human NET, 53 µM at human α3β4*-nAChR and 10000 ± 1900 nM on human DAT.
Take `Cc1cccc(C(=O)C(C)N2CCCC2)c1` (stereo not drawn) [Compound 2cc, 2-(N-Pyrrolidinyl)-3’-methylpropiophenone]: the IC50 at human α4β2-nAChR was 56 µM; against human NET it was 577 ± 61 nM; on human α3β4*-nAChR, 11 µM; against human DAT it was 414 ± 89 nM; in assay [1], 53 µM.
Take `CC(C(=O)c1cccc(Cl)c1)N1CCCCC1` (stereo not drawn) [Compound 2ff]: the “times more potent than 2a in blocking nicotine-induced antinociception in the tail-flick test” value (“times more potent than 2a” below) in assay [2] was 24 fold.
For `CCC(NC(C)(C)C)C(=O)c1ccc(Cl)c(Cl)c1` (stereo not drawn) [Compound 2w], the “times more potent than 2a” value in assay [2] is listed as 24 fold.
For the compound `CC(NC(C)(C)C)C(=O)c1cccc(Br)c1` (stereo not drawn) [Compound 2c], in assay [2], the “times more potent than 2a” value is on record as ~ 10 fold.
Turning to `CC(NC(C)(C)C)C(=O)c1cc(Cl)cc(Cl)c1` (stereo not drawn) [Compound 2n], the “times more potent than 2a” value in assay [2] stood at 43 fold.
With `Cc1ccc(C(=O)C(C)NC(C)(C)C)cc1` (stereo not drawn) [Compound 2i], the “times more potent than 2a” value in assay [2] is recorded as ~ 10 fold.
For `CC(C(=O)c1cccc(Br)c1)N1CCCC1` (stereo not drawn) [Compound 2bb, 2-(N-Pyrrolidinyl)-3’-bromopropiophenone], the IC50 turned out to be 74 µM against human α4β2-nAChR; 1180 ± 270 nM at human NET; 11 µM on human α3β4*-nAChR; 750 ± 173 nM at human DAT; 64 µM on human α4β4-nAChR; 19 µM in assay [1].
For `COc1cccc(C(=O)C(C)N2CCCC2)c1` (stereo not drawn) [Compound 2dd, 2-(N-Pyrrolidinyl)-3’-methoxypropiophenone], the half-inhibitory concentration (IC50) on human α4β2-nAChR came out at 57 µM; on human NET it was 718 ± 130 nM; against human α3β4*-nAChR, 16 µM; at human DAT it was 452 ± 82 nM; in assay [1], 87 µM.
For the compound `CC(NC(C)(C)C)C(=O)c1ccc(F)c(F)c1` (stereo not drawn) [Compound 2j], the “times more potent than 2a” value in assay [2] worked out at 24 fold.
With `Cc1cccc(C(=O)C(C)NC(C)(C)C)c1` (stereo not drawn) [Compound 2d], in assay [2], the “times more potent than 2a” value is 24 fold.
On to `CC(C(=O)c1cccc(F)c1)N1CCCC1` (stereo not drawn) [Compound 2aa, 2-(N-Pyrrolidinyl)-3’-fluoropropiophenone], for which the half-inhibitory concentration (IC50) stood at 71 µM on human α4β2-nAChR, 135 ± 36 nM against human NET, 35 µM against human α3β4*-nAChR and 156 ± 46 nM at human DAT. Further, the “fold more potent than 2a in inhibition of NE uptake” value on human NET was determined as 14 fold. Further, on human DAT, the “fold more potent than 2a in inhibition of DA uptake” value was found to be 4 fold.
For the compound `CC(NC(C)(C)C)C(=O)c1ccc(Br)cc1` (stereo not drawn) [Compound 2h], the “times more potent than 2a” value in assay [2] is recorded as ~ 10 fold.
